Laboratory results: publication PMC5302928, “[^64Cu]XYIMSR-06: A dual-motif CAIX ligand for PET imaging of clear cell renal cell carcinoma” (Oncotarget, 2016)
Several values for one entry are separate records, joined by “and”; a condition that tells them apart may be missing. Equal values may be shown once.

How the values were obtained:
[1] = In vivo metabolism study, plasma radio-TLC; parameters: species or system NSG mice; conditions: for Percentage of intact radiotracer in plasma: 7.4 MBq i.v.
Description: PET acquisition times were: 5 min/bed (1 h) post-injection were developed using a mobile phase consisting of 45% of [Al18F]XYIMSR-04. PET images were co-registered acetonitrile, 55% water and 0.1% trifluoroacetic acid. The with the corresponding 360-slice CT images. Imaging TLC plate was dried and exposed to Kodak Biomax x-ray datasets were reconstructed using the 3D-FORE/2D-OSEM film (Fisher Scientific). Standard solutions had Rf value of iterative algorithm with 2 iterations and 16 subsets, using 0.6. The intensity of bans on the film were calculated with the manufacturer ’s software. Display of images utilized the Image J software (NIH, Bethesda, MD). The percentages Amide software (Dice Holdings, Inc. NY). The 1 h image of intact [64Cu]XYIMSR-06 in plasma were 86.2%, 98.3, is shown below (Supplementary Figure S2): and 100% for 0.5h, 1h, and 2h plasma samples, respectively.
Metabolism study REFERENCES
In vivo metabolism of [64Cu]XYIMSR-06 in NSG 1. Wichert M, Krall N, Decurtins W, Franzini RM, Pretto mice intravenously (tail vein) with 7.4 MBq (200 μCi) F, Schneider P, Neri D, Scheuermann J. Dual-display of [64Cu]XYIMSR-06 in 200 µL of PBS (pH = 7.0). One of small molecules enables the discovery of ligand pairs mouse was euthanized at 0.5, 1, and 2hr time points and facilitates affinity maturation. Nature chemistry. plasma was prepared by centrifugation of whole blood 2015;7:241-9. for 15 minutes at 2,500xg at 4°C. 5 uL of the plasma 2. D’Souza CA, McBride WJ, Sharkey RM, Todaro LJ, samples and control (7.4 kBq of [64Cu]XYIMSR-06) were Goldenberg DM. High-yielding aqueous 18F-labeling of spotted onto silica gel 60 RP-18 F254S glass TLC plates peptides via Al18F chelation. Bioconjugate chemistry.
(EMD Millipore Corp., Billerica, MA) and the plates 2011;22:1793-803. […]

[2] = system: CAIX-expressing SK-RC-52 ccRCC tumor xenografts; assay: Biodistribution of [^64Cu]XYIMSR-06 in mice bearing SK-RC-52 xenografts; assay type: in vivo
Description: Animal experiments were performed in accordance with protocols approved by the Johns Hopkins Animal Care and Use Committee (ACUC). Six-week-old female NOD/SCID mice were purchased from the Animal Resource Core of the Sidney Kimmel Comprehensive Cancer Center of Johns Hopkins and were subcutaneously injected in the upper right flank with 1 × 10^6 SK-RC-52 cells in RPMI 1640 GlutaMAX™ media (Life Technologies, Frederick, MD) supplemented with 1% fetal bovine serum (FBS). Mice were monitored for tumor size and used for PET/CT imaging when the size of the tumor reached 100 mm^3.
Mice bearing SK-RC-52 xenografts within the upper right flank were injected intravenously with 740 kBq (20 μCi) of [^64Cu]XYIMSR-06 in 200 μL of PBS. For in vivo competition (binding specificity) studies, tumor-bearing mice were injected with 740 kBq (20 μCi) of [^64Cu]XYIMSR-06 and 200 nmole of 1 in 200 μL of PBS concurrently. At specific times after injection (1 h, 4 h, 8 h and 24 h), mice (n = 5) were sacrificed by cervical dislocation with blood immediately collected by cardiac puncture. Heart, lungs, pancreas, spleen, fat, brain, muscle, small intestines, liver, stomach, kidney, urinary bladder, and tumor were also collected. Each organ was weighed and the tissue radioactivity was measured with an automated gamma counter (1282 Compugamma CS, Pharmacia/ LKBNuclear, Inc., Mt. Waverly, Vic. Australia). The percentage of injected dose per gram of tissue (%ID/g) was calculated by comparison with samples of a standard dilution of the initial dose. All measurements were corrected for radioactive decay. Data are expressed as mean ± standard deviation (SD).

[3] = 8 h+Block (co-injected 200 nmole of 1)
[4] = 24 h+Block (co-injected 200 nmole of 1)
[5] = one phase exponential decay fit

With `CC(CCC(=O)NC(CC(=O)NC(CC(=O)NC(CCCCn1cc(CCCC(=O)Nc2nnc(S(N)(=O)=O)s2)nn1)C(=O)NCCOCCOCCNC(=S)Nc1ccc(CC2CN(CC(=O)O)CCN(CC(=O)[O-])CCN2CC(=O)[O-])cc1)C(=O)O)C(=O)O)(c1ccc(O)cc1)c1ccc(O)cc1.[64Cu+2]` (stereo not shown) [[^64Cu]XYIMSR-06] the “Percentage of intact radiotracer in plasma” value (“Percentage” below) ([1]; 0.5h plasma sample) was 86.2%, the “Percentage” value ([1]; 1h plasma sample) was 98.3% and the “Percentage” value ([1]; 2h plasma sample) was 100%. For the same compound, the “In vivo stability by blood metabolites (radio thin layer chromatography)” value ([1]; post-injection) was “stable up to 2 h post-injection”, the Bladder uptake ([2]; 1 h) was 11.12±6.33 %ID/g and the Blood uptake ([2]; 1 h) was 0.66±0.05 %ID/g. It also gave a Brain uptake ([2]; 1 h) of 1.46±2.23 %ID/g, a Fat uptake ([2]; 1 h) of 0.80±0.17 %ID/g and a Heart uptake ([2]; 1 h) of 3.41±0.79 %ID/g. The “Kidney (kid) uptake” value ([2]; 1 h) was 33.65±3.91 %ID/g, the Liver uptake ([2]; 1 h) was 3.25±0.97 %ID/g and the Lung uptake ([2]; 1 h) was 25.52±3.35 %ID/g. For the same compound, the “Muscle (mm) uptake” value ([2]; 1 h) was 1.28±0.27 %ID/g, the Pancreas uptake ([2]; 1 h) was 2.94±0.24 %ID/g and the Sm. intestine uptake ([2]; 1 h) was 7.35±0.78 %ID/g. For the same compound, the Spleen uptake ([2]; 1 h) was 0.36±0.08 %ID/g, the Stomach uptake ([2]; 1 h) was 14.80±2.27 %ID/g and the Tumor uptake ([2]; 1 h) was 14.5 %ID/g and 14.47±2.69 %ID/g. The “Tumor/kid (kidney) ratio” value ([2]; 1 h) was 0.4±0.1, the “Tumor/mm (muscle) ratio” value ([2]; 1 h) was 10.8±3.7 and the Bladder uptake ([2]; 4 h) was 17.05±8.86 %ID/g. The Blood uptake ([2]; 4 h) was 0.33±0.06 %ID/g, the Brain uptake ([2]; 4 h) was 0.29±0.06 %ID/g and the Fat uptake ([2]; 4 h) was 0.52±0.29 %ID/g. For the same compound, the Heart uptake ([2]; 4 h) was 1.78±0.33 %ID/g, the “Kidney (kid) uptake” value ([2]; 4 h) was 19.99±2.88 %ID/g and the Liver uptake ([2]; 4 h) was 2.18±0.57 %ID/g. The Lung uptake ([2]; 4 h) was 12.03±1.61 %ID/g, the “Muscle (mm) uptake” value ([2]; 4 h) was 0.70±0.18 %ID/g and the Pancreas uptake ([2]; 4 h) was 1.36±0.19 %ID/g. For the same compound, the Sm. intestine uptake ([2]; 4 h) was 4.15±0.69 %ID/g, the Spleen uptake ([2]; 4 h) was 0.24±0.04 %ID/g and the Stomach uptake ([2]; 4 h) was 8.19±0.97 %ID/g. For the same compound, the Tumor uptake ([2]; 4 h) was 19.3 %ID/g and 19.31±4.51 %ID/g, the Tumor/Blood ratio ([2]; 4 h) was 57.7±9.3 and the “Tumor/kid (kidney) ratio” value ([2]; 4 h) was 1.0±0.1. For the same compound, the “Tumor/mm (muscle) ratio” value ([2]; 4 h) was 29.4±9.9, the Bladder uptake ([2]; 8 h) was 7.43±7.72 %ID/g and the Blood uptake ([2]; 8 h) was 0.13±0.02 %ID/g. For the same compound, the Brain uptake ([2]; 8 h) was 0.24±0.06 %ID/g, the Fat uptake ([2]; 8 h) was 0.28±0.27 %ID/g and the Heart uptake ([2]; 8 h) was 0.65±0.10 %ID/g. The “Kidney (kid) uptake” value ([2]; 8 h) was 8.14±1.15 %ID/g, the Liver uptake ([2]; 8 h) was 0.99±0.22 %ID/g and the Lung uptake ([2]; 8 h) was 4.64±0.58 %ID/g. For the same compound, the “Muscle (mm) uptake” value ([2]; 8 h) was 0.21±0.05 %ID/g, the Pancreas uptake ([2]; 8 h) was 0.47±0.21 %ID/g and the Sm. intestine uptake ([2]; 8 h) was 1.98±0.14 %ID/g. It also gave a Spleen uptake ([2]; 8 h) of 0.18±0.02 %ID/g, a Stomach uptake ([2]; 8 h) of 4.02±0.53 %ID/g and a Tumor uptake ([2]; 8 h) of 16.74±1.58 %ID/g. For the same compound, the Tumor/Blood ratio ([2]; 8 h) was 129.6±18.8, the “Tumor/kid (kidney) ratio” value ([2]; 8 h) was 2.1 and 2.1 ± 0.3 and 2.1±0.26 and the “Tumor/mm (muscle) ratio” value ([2]; 8 h) was 84.3±21.0. It also gave a Bladder uptake [2, 3] of 1.45±1.53 %ID/g, a Blood uptake [2, 3] of 0.08±0.01 %ID/g and a Brain uptake [2, 3] of 0.04±0.01 %ID/g. The Fat uptake [2, 3] was 0.05±0.01 %ID/g, the Heart uptake [2, 3] was 0.16±0.03 %ID/g and the “Kidney (kid) uptake” value [2, 3] was 1.82±0.39 %ID/g. For the same compound, the Liver uptake [2, 3] was 0.55±0.08 %ID/g, the Lung uptake [2, 3] was 0.77±0.14 %ID/g and the “Muscle (mm) uptake” value [2, 3] was 0.05±0.02 %ID/g. The Pancreas uptake [2, 3] was 0.14±0.03 %ID/g, the Sm. intestine uptake [2, 3] was 0.38±0.06 %ID/g and the Spleen uptake [2, 3] was 0.14±0.02 %ID/g. It also gave a Stomach uptake [2, 3] of 0.69±0.18 %ID/g, a Tumor uptake [2, 3] of 2.39±0.24 %ID/g and a Tumor/Blood ratio [2, 3] of 32.0±3.8. The “Tumor/kid (kidney) ratio” value [2, 3] was 1.3±10.2, the “Tumor/mm (muscle) ratio” value [2, 3] was 53.0±12.6 and the “Effect of co-injection of 200 nmole of 1 on tumor uptake (binding specificity)” value ([2]; 8 h and 24 h) was “blocked tumor uptake”. For the same compound, the “All other tumor-to-organ ratios tested (other than kidney and lung)” value ([2]; 24 h) was ≥ 10, the Bladder uptake ([2]; 24 h) was 0.34±0.09 %ID/g and the Brain uptake ([2]; 24 h) was 0.13±0.02 %ID/g. For the same compound, the Fat uptake ([2]; 24 h) was 0.03±0.01 %ID/g, the Heart uptake ([2]; 24 h) was 0.12±0.03 %ID/g and the “Kidney (kid) uptake” value ([2]; 24 h) was 0.90±0.12 %ID/g. For the same compound, the Liver uptake ([2]; 24 h) was 0.38±0.03 %ID/g, the Lung uptake ([2]; 24 h) was 1.27±0.38 %ID/g and the “Muscle (mm) uptake” value ([2]; 24 h) was 0.02±0.01 %ID/g. The Pancreas uptake ([2]; 24 h) was 0.21±0.29 %ID/g, the Sm. intestine uptake ([2]; 24 h) was 0.47±0.03 %ID/g and the Spleen uptake ([2]; 24 h) was 0.09±0.01 %ID/g. The Stomach uptake ([2]; 24 h) was 0.65±0.04 %ID/g, the Tumor uptake ([2]; 24 h) was 6.2 %ID/g and 6.23±1.41 %ID/g and the Tumor-to-lung ratio ([2]; 24 h) was 4.9. For the same compound, the Tumor/Blood ratio ([2]; 24 h) was 142.6±115.8, the “Tumor/kid (kidney) ratio” value ([2]; 24 h) was 7.1 and 7.1±2.5 and the Bladder uptake [2, 4] was 0.45±0.50 %ID/g. The Blood uptake [2, 4] was 0.01±0.08 %ID/g, the Brain uptake [2, 4] was 0.02±0.01 %ID/g and the Fat uptake [2, 4] was 0.01±0.01 %ID/g. For the same compound, the Heart uptake [2, 4] was 0.08±0.01 %ID/g, the “Kidney (kid) uptake” value [2, 4] was 0.48±0.09 %ID/g and the Liver uptake [2, 4] was 0.42±0.04 %ID/g. For the same compound, the Lung uptake [2, 4] was 0.29±0.05 %ID/g, the “Muscle (mm) uptake” value [2, 4] was 0.04±0.06 %ID/g and the Pancreas uptake [2, 4] was 0.07±0.02 %ID/g. For the same compound, the Sm. intestine uptake [2, 4] was 0.19±0.05 %ID/g, the Spleen uptake [2, 4] was 0.11±0.04 %ID/g and the Stomach uptake [2, 4] was 0.29±0.04 %ID/g. The Tumor uptake [2, 4] was 1.20±0.47 %ID/g, the Tumor/Blood ratio [2, 4] was 27.1±26.7 and the “Tumor/kid (kidney) ratio” value [2, 4] was 2.4±0.4. The “Tumor/mm (muscle) ratio” value [2, 4] was 49.0±28.7, the “Calculated half-life, Bladder” value [2, 5] was 116.2 h and the “Calculated half-life, Blood” value [2, 5] was 2.153 h. For the same compound, the “Calculated half-life, Brain” value [2, 5] was 0.860 h, the “Calculated half-life, Fat” value [2, 5] was 4.666 h and the “Calculated half-life, Heart” value [2, 5] was 2.293 h. For the same compound, the “Calculated half-life, Kidney” value [2, 5] was 3.591 h, the “Calculated half-life, Liver” value [2, 5] was 3.375 h and the “Calculated half-life, Lung” value [2, 5] was 2.542 h. For the same compound, the “Calculated half-life, Muscle” value [2, 5] was 3.035 h, the “Calculated half-life, Pancreas” value [2, 5] was 2.330 h and the “Calculated half-life, SK-RC-52 tumor” value [2, 5] was 996.1 h. The “Calculated half-life, Small intestine” value [2, 5] was 3.322 h, the “Calculated half-life, Spleen” value [2, 5] was 4.008 h and the “Calculated half-life, Stomach” value [2, 5] was 3.397 h. For the same compound, the “Radiotracer uptake within liver” value ([2]; within 24 h) was “no significant radiotracer uptake within liver”.
